Columns and labels:
[1] = 1H NMR titration chloride binding studies; conditions: for Overall association constant β21 for the 2:1 host:guest complex: calculated by multiplying K 11 and K 21; for Association constant of Cl^− in the presence of HPF6 (1 equiv.), 1:1 (K a) / Association constant of Cl^− in the presence of HPF6 (1 equiv.), 2:1, K 11 / Association constant of Cl^− in the presence of HPF6 (1 equiv.), 2:1, K 21: protonated perenosin, TBA-Cl, DMSO-d6/0.5% H2O, 298 K; for Association constant of Cl^− in the presence of HPF6 (1 equiv.), 1:1 (K a): 1:1 binding model; for Association constant of Cl^− in the presence of HPF6 (1 equiv.), 2:1, K 11 / Association constant of Cl^− in the presence of HPF6 (1 equiv.), 2:1, K 21: 2:1 binding model; for partial protonation of the imine nitrogen: one mole equivalent of HPF6, DMSO-d6/0.5% H2O
Protocol: Proton NMR titrations were performed in DMSO-d 6/0.5% H2O, to assess the ability of compounds 1d and 2–8 to bind chloride, added as the tetrabutylammonium (TBA) salt, in solution. […] However, in the presence of one equivalent of HPF6, strong binding to chloride was observed through downfield shifts of the pyrrole-NH, indole-NH and the protonated imine-NH^+. All three resonances were fitted globally to the 1:1 or 2:1 (sandwich) binding models using Bindfit[48].
S8. 1H NMR Titration Binding Studies
S8.1. Equipment and Sample Preparation
1H NMR titrations were performed on a Bruker Avance AVII400 FT -NMR spectrometer with either SEF 1H/D-19F or DUL D/1H-13C, 5 mm z-gradient probes, operating at a frequency of 400 MHz for 1H NMR with the probe temperature maintained at 298 K unless otherwise stated as determined using a variable temperature unit ([…]). For all NMR titrations, a constant host concentration w as maintained (~ 5.0 mM) by using the host solution to dissolve the guest to make the guest stock solution. Over the course of the titration Hamiltonian Microlitre syringes were used to add aliquots of the guest stock solution to the NMR sample of the host solution.
The anions were added as the tetrabutylammonium (TBA) salts after being dried under high vacuum (< 1.0 mmHg) for 24 h. Stock solutions of the host ( ~ 5.0 mM) were prepared in a DMSO -d6/0.5%H2O mixture. In some titrations, protonation of the host species was achieved through the addition of 1 eq. hexafluorophosphoric acid (HPF6) to the host stock solution. The host stock solutions, with or without addition of HPF6, ( 500 μL) were transferred to an air -tight screw-cap NMR sample tube (5 mm ID) and the same host stock solution was used to prepare the standard guest titrant solution containing approximately 100 mM of the TBA-anion salts. T his ensured a constant concentration of the host (~ 5.0 mM) for the duration of the titration experiment.
S8.2. Titration Procedure
Over the course of the titration small aliquots (2 -100 μL) of the standard guest solution were added to the host solution ( ~ 500 μL) in the NMR tube. For ea ch titration 15 -20 data points were collected and at the end of the titration approximately 10 equivalents of the guest anion salt were present.
Upon each addition of the standard guest solution the samples were thoroughly shaken in the NMR tube and then allowed to equilibrate for up to 2 minutes inside the NMR probe before the spectra were taken. Throughout each titration experiment all parameters of the NMR s pectrometer […]
S8.3. Titration Data Fitting
For each 1H NMR titration, all the proton resonances were monitored for changes in chemical shift.
In the case of protonated host species at least one proton resonance was followed and for the neutral host species two or more proton resonances were followed, which allowed several data sets to use in determination of the association constant (Ka). Global fitting takes into account all data sets at the same time and this improves the quality of the nonlinear curve fitting. The supramolecular.org web applet10 was used to fit the collected titration data and allows the use of different binding models to fit the data in the best way. For compounds 1d and 2-8 firstly the 1:1 […]
cooperative or additive, was used. The quality of fit is determined by the covariance of the fit (covfit), which is calculated by dividing the (co)variance of the residual (experimental data − calculated data) with the covariance of the experimental data. A covariance of fit factor (F covfit) can be obtained by dividing the covfir from the 1:1 binding model by the covfit from the 2:1 binding model. Due to the higher number of parameters from the 2:1 binding model an improvement in the covfit (i.e. F covfit)

[2] = Cl^−/NO3^− ISE assay in POPC:cholesterol (7:3) vesicles; format: biochemical; conditions: 0.1 mol% loading, pH 7.2
Protocol: To further probe other aspects of transmembrane transport mechanism of perenosins, a variety of studies were employed. […] Using the same conditions for sulfate transport, and adding a bicarbonate pulse at 120 s to give a final external bicarbonate concentration of 40 mM, allowed observation of potential Cl^−/HCO3 ^− antiport elicited by 1d and 2–8; no Cl^− efflux was detected, presumably due to the basicity of bicarbonate anion preventing protonation of the imine-N2. Finally, preincorporation of 1d and 2–6 into POPC vesicles followed by performing a similar NMDG-Cl assay, and subsequent dilution of the resulting lipid solution, investigated how perenosins behave in a lipid membrane environment. […] See Supplementary Information for more details of results and experimental details of these assays.
S10. Anion Transport Studies
S10.1. General Procedure for the ISE Assay
Unilamellar vesicles were prepared using previously reported literature procedures7-9. A lipid film of POPC (1-palmitoyl-2-oleoyl-sn-glycero-3-phosphocholine) or POPC:cholesterol (7:3 molar ratio) was prepared from a chloroform solution under reduced pressure and then dried under vacuum for 4 or more hours. The lipid film was rehydrated by vortexing with an internal solution of buffered metal chloride salt (usually 489 mM MCl). The lipid suspension was then subjected to 9 freeze-thaw cycles and left to rest at room temperature for 30 minutes. After this, the suspension was extruded 25 times through a 200 nm polycarbonate membrane resulting in unilamellar vesicles of a mean diameter of 200 nm. […]
The lipid stock was diluted with the external buffer solution to a standard volume (5 mL), to afford a solution with a lipid concentration of 1 mM. The compounds were added as a DMSO solution (10 μL) at the start of the experiment and the resulting chloride efflux was monitored using a chloride selective electrode over 5 minutes. After this time, detergent (50 μL of Triton X-100 (11 w%) in H2O:DMSO (7:1 v/v)) was added to lyse the vesicles and after 7 minutes a final chloride efflux reading was taken. […]

| Compound | Overall association constant β21 for the 2:1 host:guest complex [1] | Association constant of Cl^− in the presence of HPF6 (1 equiv.), 1:1 (K a) [1] | Association constant of Cl^− in the presence of HPF6 (1 equiv.), 2:1, K 11 [1] | Association constant of Cl^− in the presence of HPF6 (1 equiv.), 2:1, K 21 [1] | chloride efflux in POPC:Cholesterol (7:3) vesicles [2] | partial protonation of the imine nitrogen [1] |
| --- | --- | --- | --- | --- | --- | --- |
| CCCCCc1cc2cc(C)cc(/N=C/c3[nH]c(C)cc3C)c2[nH]1 [Perenosin 2] | 1.18e+06 M⁻¹ | 2450 M⁻¹ | 2500 M⁻¹ | 473 M⁻¹ | 70% | – |
| CCCCCc1cc2cc(C)cc(/N=C/c3[nH]c4ccccc4c3C)c2[nH]1 [Perenosin 8] | 35500 M⁻¹ | 142 M⁻¹ | 184 M⁻¹ | 193 M⁻¹ | no chloride efflux | ~10% |
| CCCc1cc2cc(C)cc(/N=C/c3[nH]c(C)cc3C)c2[nH]1 [Perenosin 4] | 468000 M⁻¹ | 3440 M⁻¹ | 1530 M⁻¹ | 306 M⁻¹ | – | – |
| CCCCCc1cc(/N=C/c2[nH]c3ccccc3c2C)c2[nH]ccc2c1 [Perenosin 7] | 36500 M⁻¹ | 157 M⁻¹ | 72 M⁻¹ | 507 M⁻¹ | no chloride efflux | approximately 20% |
| CCCCCc1cc2cc(C(F)(F)F)cc(/N=C/c3[nH]c(C)cc3C)c2[nH]1 [Perenosin 3] | 393000 M⁻¹ | 3440 M⁻¹ | 190 M⁻¹ | 2070 M⁻¹ | – | – |
| CCCCCc1cc2cc(C)cc(/N=C/c3[nH]c(C)c(CCCCC)c3C)c2[nH]1 [Perenosin 6] | 172000 M⁻¹ | 78300 M⁻¹ | 1090 M⁻¹ | 158 M⁻¹ | – | – |
| CCCCCc1cc(/N=C/c2[nH]c(C)cc2C)c2[nH]ccc2c1 [Perenosin 1d] | 333000 M⁻¹ | 605 M⁻¹ | 1750 M⁻¹ | 190 M⁻¹ | – | – |
| CCCCCc1c(C)[nH]c(/C=N/c2cc(C)cc3cc[nH]c23)c1C [Perenosin 5] | 4630 M⁻¹ | 2610 M⁻¹ | 331 M⁻¹ | 14 M⁻¹ | – | – |
